# Molecular target: ΔF508 CFTR (Homo sapiens, UniProt P13569, DEL508-508)
# Assay: Stabilization of ΔF508 CFTR in CFBE cells (western blot, densitometry)
# Type: cell-based
# Settings: 16 hours at 37° C.
# From the text: In addition, efficacy of a compound can be evaluated before (first in time), concomitantly or subsequently to the above-mentioned test modalities by monitoring, e.g., (i) modulation (e.g., an improvement) of the stability of a trafficking defective protein, (ii) modulation (e.g., an improvement) of proper, physiological trafficking of the trafficking defective protein, or (iii) modulation (e.g., a restoration) in one or more functions of a trafficking defective protein. For example, in some cases, proteins (e.g., protein mutants such as ΔF508 CFTR) are prematurely degraded. Thus, the efficacy of a given compound to modulate protein trafficking can be determined by monitoring the stability of a protein in the presence as compared to the absence of the compound. For example, cells expressing a trafficking defective protein (e.g., expressing endogenously or expressing an exogenous transgene encoding a trafficking defective protein such as ΔF508 CFTR) can be cultured in the presence or absence of a compound for at least 1 hour (e.g., at least 2 hours, at least 4 hours, at least 6 hours, at least 8 hours, at least 12 hours, at least 16 hours, at least 24 hours, at least 36 hours, or at least 48 hours). Cell lysates can be prepared from the different populations of cells, suspended in Laemmli buffer (with or without reducing agent) and subjected to sodium dodecyl sulfate-polyacrylamide gel electrophoresis (SDS-PAGE). Using antibodies that specifically recognize the trafficking defective protein (e.g., CFTR), the amount of the protein in the presence as compared to in the absence of a compound can be determined by western or dot-blotting techniques. […] Where a modified state (e.g., glycosylation or phosphorylation) of a protein is indicative of increased stability, a change in the modified state of a protein can also be used to determine if a compound stabilizes the trafficking defective protein. For example, the amount of glycosylated CFTR (e.g., ΔF508 CFTR) can be assessed in the presence as compared to the absence of a compound.
# The compounds can be tested for their ability to stabilize ΔF508 CTFR. CFBE cells, a cell line generated by transformation of cystic fibrosis tracheo-bronchial cells (ΔF508 CTFR homozygous) with SV40 (Bruscia et al. (2002) Gene Ther. 9(11):683-685), can be cultured with 10 μM of the selected compounds, or 10 μM VRT-325 for 16 hours at 37° C. (VRT-325 is described in, e.g., Van Goor et al. (2006) Am. J. Physiol. Lung Cell Mol. Physiol. 290:L1117-L1130). A population of cells can also be cultured with the dimethyl sulfoxide (DMSO) solvent as a control.
# Following incubation, cells were lysed, solubilized in Laemmli buffer, and subjected to SDS-PAGE. CFTR protein were visualized by western blotting using an antibody specific for CFTR. Culturing CFBE cells with compound 25 (see Table I for structure) increased the amount of cellular ΔF508 CFTR protein.
# The effect of different concentrations of compound 25 on ΔF508 CFTR was tested in a dose response experiment. […] The relative amounts of glysosylated and unglycosylated ΔF508 CFTR protein were visualized by western blotting (FIG. 10A), and the band intensities wer quantitated by scanning and densitometry (FIG. 10B). […] The relative amounts of glysosylated and unglycosylated ΔF508 CFTR protein were visualized by western blotting (FIG. 11A), and the band intensities wer quantitated by scanning and densitometry (FIG. 11B).
# Chain of ΔF508 CFTR (P13569 with tags, fused parts or gaps DEL508-508): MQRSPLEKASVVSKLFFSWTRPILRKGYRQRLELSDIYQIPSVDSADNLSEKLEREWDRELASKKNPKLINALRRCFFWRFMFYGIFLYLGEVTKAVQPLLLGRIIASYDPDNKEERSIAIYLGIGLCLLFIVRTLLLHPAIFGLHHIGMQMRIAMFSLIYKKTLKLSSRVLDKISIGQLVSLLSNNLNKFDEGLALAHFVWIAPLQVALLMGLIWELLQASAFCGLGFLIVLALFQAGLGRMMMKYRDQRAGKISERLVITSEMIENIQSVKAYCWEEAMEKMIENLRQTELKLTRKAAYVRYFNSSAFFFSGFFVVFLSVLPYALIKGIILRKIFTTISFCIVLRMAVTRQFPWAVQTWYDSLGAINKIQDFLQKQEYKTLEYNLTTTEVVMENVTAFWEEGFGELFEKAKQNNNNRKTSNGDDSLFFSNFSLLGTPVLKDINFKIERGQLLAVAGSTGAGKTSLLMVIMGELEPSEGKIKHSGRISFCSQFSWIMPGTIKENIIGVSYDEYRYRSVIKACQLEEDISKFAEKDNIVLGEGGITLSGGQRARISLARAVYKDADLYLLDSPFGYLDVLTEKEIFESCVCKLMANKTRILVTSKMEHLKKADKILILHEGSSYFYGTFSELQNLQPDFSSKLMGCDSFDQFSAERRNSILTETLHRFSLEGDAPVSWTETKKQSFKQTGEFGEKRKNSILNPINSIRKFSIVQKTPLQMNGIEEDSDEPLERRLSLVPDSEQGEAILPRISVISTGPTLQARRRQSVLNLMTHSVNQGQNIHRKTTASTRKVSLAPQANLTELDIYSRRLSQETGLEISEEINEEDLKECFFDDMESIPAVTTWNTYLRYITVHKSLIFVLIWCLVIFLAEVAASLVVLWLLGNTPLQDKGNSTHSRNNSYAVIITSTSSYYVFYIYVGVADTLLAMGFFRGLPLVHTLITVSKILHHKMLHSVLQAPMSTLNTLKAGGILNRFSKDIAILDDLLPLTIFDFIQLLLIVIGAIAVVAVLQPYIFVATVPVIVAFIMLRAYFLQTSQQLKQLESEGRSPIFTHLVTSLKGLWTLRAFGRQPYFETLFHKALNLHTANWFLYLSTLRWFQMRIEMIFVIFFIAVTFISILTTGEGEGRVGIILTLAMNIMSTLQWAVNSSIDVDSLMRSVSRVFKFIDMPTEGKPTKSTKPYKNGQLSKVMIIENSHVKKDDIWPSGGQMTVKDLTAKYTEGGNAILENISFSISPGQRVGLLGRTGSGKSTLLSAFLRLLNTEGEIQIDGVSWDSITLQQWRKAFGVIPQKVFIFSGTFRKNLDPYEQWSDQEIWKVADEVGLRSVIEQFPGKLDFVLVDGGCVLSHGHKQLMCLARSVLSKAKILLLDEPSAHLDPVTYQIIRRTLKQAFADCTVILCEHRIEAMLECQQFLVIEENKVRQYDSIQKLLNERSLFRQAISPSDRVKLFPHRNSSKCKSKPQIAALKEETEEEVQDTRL
smiles,measurement,setting,value
CC(C)(C)n1nc(-c2ccc(Cl)cc2)c2c(N)ncnc21 [compound 25],amount of cellular ΔF508 CFTR protein (western blot),10 μM,increased
same,amount of the glycosylated form of ΔF508 CFTR (western blot),10 μM,increased
same,effect on stabilizing ΔF508 CFTR relative to VRT-325,10 μM,comparable or better
same,"glycosylated (Band B) ΔF508 CFTR protein vs absence of compound, dose response","1.25-10 μM (compound 25), 1-10 μM (compound 5)",increased

# Source: patent US20100331297A1, “MODULATION OF PROTEIN TRAFFICKING” (FOLDRX PHARMACEUTICALS, INC., priority 2007, published 2010)
